Reference: US7994209B2, “3-phenoxymethylpyrrolidine compounds” (Theravance, Inc., priority 2009, dated 2011)

Assays:
hNET [1] = target: T1, hNET (Homo sapiens, UniProt P23975); test: hNET membrane radioligand binding assay (3H-nisoxetine), Assay 1
hSERT [2] = target: T2, hSERT (Homo sapiens, UniProt P31645); test: hSERT membrane radioligand binding assay (3H-citalopram), Assay 1; details: SERT pKi, hSERT HEK-293 membranes, 1.0 nM 3H-citalopram; values given as lower bounds
hNET [3] = target: T1, hNET; test: hNET neurotransmitter uptake assay (3H-NE), Assay 2; assay type: cell-based; design: expressed in transfected cells; host or cells: HEK-293; details: norepinephrine reuptake inhibition, 3H-NE uptake, HEK-293 hNET cells (values without asterisk); read-out: NET pIC50 (converted)
Protocol: (§1) Cells were harvested by centrifugation at 1100 rpm for 5 minutes, washed once by resuspension in PBS, then centrifuged. The supernatant was discarded and the cell pellet resuspended, by gentle trituration, in room temperature Krebs-Ringer bicarbonate buffer containing HEPES (10 mM), CaCl2 (2.2 mM), ascorbic acid (200 μM) and pargyline (200 μM), pH 7.4.
(§2) Test compounds were incubated for 30 minutes at 37° C. with the respective cells, prior to addition of radiolabeled neurotransmitter, ^3H-5-HT (20 nM final concentration), ^3H-NE (50 nM final concentration) or ^3H-DA (100 nM final concentration).

hSERT [4] = target: T2, hSERT; test: hSERT neurotransmitter uptake assay (3H-5-HT), Assay 2; assay type: cell-based; design: expressed in transfected cells; host or cells: HEK-293; details: serotonin reuptake inhibition, 3H-5-HT uptake, HEK-293 hSERT cells (values without asterisk); read-out: SERT pIC50 (converted)
Protocol: as §1, §2

T1 sequence (P23975 whole entry): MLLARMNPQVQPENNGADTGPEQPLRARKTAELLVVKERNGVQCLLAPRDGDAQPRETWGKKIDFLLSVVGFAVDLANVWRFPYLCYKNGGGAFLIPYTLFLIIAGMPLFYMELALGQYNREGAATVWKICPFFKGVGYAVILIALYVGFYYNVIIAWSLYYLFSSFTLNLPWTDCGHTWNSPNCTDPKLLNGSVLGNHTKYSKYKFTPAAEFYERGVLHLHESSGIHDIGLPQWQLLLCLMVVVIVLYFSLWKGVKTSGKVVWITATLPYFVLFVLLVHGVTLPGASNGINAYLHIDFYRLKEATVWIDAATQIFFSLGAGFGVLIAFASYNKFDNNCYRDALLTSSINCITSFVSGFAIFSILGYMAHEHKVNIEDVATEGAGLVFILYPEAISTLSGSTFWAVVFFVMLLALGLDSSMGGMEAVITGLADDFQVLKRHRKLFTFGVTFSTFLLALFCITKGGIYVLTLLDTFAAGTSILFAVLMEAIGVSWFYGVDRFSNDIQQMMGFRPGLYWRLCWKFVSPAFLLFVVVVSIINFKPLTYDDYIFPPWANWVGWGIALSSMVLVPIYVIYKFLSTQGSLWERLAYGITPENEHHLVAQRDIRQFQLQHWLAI
T2 sequence (P31645 whole entry): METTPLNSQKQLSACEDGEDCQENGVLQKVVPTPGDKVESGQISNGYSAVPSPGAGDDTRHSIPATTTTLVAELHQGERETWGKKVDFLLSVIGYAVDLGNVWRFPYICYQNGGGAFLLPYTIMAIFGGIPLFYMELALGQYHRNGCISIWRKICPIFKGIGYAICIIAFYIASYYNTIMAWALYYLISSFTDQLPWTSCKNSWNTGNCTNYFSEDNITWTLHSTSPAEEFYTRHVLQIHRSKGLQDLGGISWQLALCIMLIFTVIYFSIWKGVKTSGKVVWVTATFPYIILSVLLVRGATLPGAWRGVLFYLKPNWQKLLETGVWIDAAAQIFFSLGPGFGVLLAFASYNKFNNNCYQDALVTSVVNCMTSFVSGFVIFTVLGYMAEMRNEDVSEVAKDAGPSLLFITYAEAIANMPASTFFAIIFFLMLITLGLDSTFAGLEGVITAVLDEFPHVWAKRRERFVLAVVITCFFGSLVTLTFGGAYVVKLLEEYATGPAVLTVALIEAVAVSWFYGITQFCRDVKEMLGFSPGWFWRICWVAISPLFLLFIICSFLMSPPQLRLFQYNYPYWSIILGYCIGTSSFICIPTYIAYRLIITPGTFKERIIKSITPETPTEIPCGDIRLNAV

Ki (hNET [1]) [nM] | Ki (hSERT [2]) [nM] | IC50 (hNET [3]) [nM] | IC50 (hSERT [4]) [nM] | SMILES
≤ 10 | ≤ 10 | ≤ 10 | ≤ 10 | CC[C@@H](Oc1cccc(Cl)c1Cl)[C@@H]1CCNC1 [Example 2-29, (R)-3-[(R)-1-(2,3-Dichlorophenoxy)propyl]pyrrolidine]
≤ 10 | ≤ 10 | ≤ 10 | ≤ 10 | CC[C@H](Oc1ccc(F)cc1Cl)[C@H]1CCNC1 [Example 2-32, (S)-3-[(S)-1-(2-Chloro-4-fluorophenoxy)propyl]pyrrolidine]
≤ 10 | ≤ 10 | ≤ 10 | ≤ 100 | CC[C@H](Oc1c(Cl)ccc(Cl)c1Cl)[C@H]1CCNC1 [Example 2-37, (S)-3-[(S)-1-(2,3,6-Trichlorophenoxy)propyl]pyrrolidine]
≤ 10 | ≤ 10 | ≤ 10 | ≤ 100 | CC[C@@H](Oc1c(Cl)ccc(Cl)c1Cl)[C@H]1CCNC1 [Example 2-38, (S)-3-[(R)-1-(2,3,6-Trichlorophenoxy)propyl]pyrrolidine]
≤ 10 | ≤ 10 | ≤ 10 | ≤ 100 | CC[C@@H](Oc1c(F)ccc(Cl)c1Cl)[C@H]1CCNC1 [Example 2-39, (S)-3-[(R)-1-(2,3-Dichloro-6-fluorophenoxy)propyl]pyrrolidine]
≤ 10 | ≤ 10 | ≤ 10 | ≤ 100 | CC[C@H](Oc1c(F)ccc(F)c1Cl)[C@H]1CCNC1 [Example 2-40, (S)-3-[(S)-1-(2-Chloro-3,6-difluorophenoxy)propyl]pyrrolidine]
≤ 10 | ≤ 10 | ≤ 10 | ≤ 100 | CC[C@@H](Oc1c(F)ccc(F)c1Cl)[C@H]1CCNC1 [Example 2-41, (S)-3-[(R)-1-(2-Chloro-3,6-difluorophenoxy)propyl]pyrrolidine]
≤ 10 | ≤ 10 | ≤ 10 | ≤ 10 | CC[C@H](Oc1ccc(Cl)c(F)c1Cl)[C@H]1CCNC1 [Example 2-42, (S)-3-[(S)-1-(2,4-Dichloro-3-fluorophenoxy)propyl]pyrrolidine]
≤ 10 | ≤ 10 | ≤ 10 | ≤ 100 | CC[C@H](Oc1c(C)cc(Cl)cc1Cl)[C@H]1CCNC1 [Example 2-43, (S)-3-[(S)-1-(2,4-Dichloro-6-methylphenoxy)propyl]pyrrolidine]
≤ 10 | ≤ 10 | ≤ 10 | ≤ 10 | CC[C@H](Oc1c(F)ccc(OC)c1Cl)[C@H]1CCNC1 [Example 2-44, (S)-3-[(S)-1-(2-Chloro-6-fluoro-3-methoxyphenoxy)propyl]pyrrolidine]
≤ 10 | ≤ 10 | ≤ 10 | ≤ 100 | CC[C@H](Oc1ccc(Cl)cc1F)[C@H]1CCNC1 [Example 2-47, (S)-3-[(S)-1-(4-Chloro-2-fluorophenoxy)propyl]pyrrolidine]
≤ 10 | ≤ 10 | ≤ 10 | ≤ 10 | CC[C@H](Oc1c(F)cc(Cl)cc1F)[C@H]1CCNC1 [Example 2-48, (S)-3-[(S)-1-(4-Chloro-2,6-difluorophenoxy)propyl]pyrrolidine]
≤ 10 | ≤ 10 | ≤ 10 | ≤ 100 | CC[C@H](Oc1c(F)ccc(Cl)c1F)[C@H]1CCNC1 [Example 2-52, (S)-3-[(S)-1-(3-Chloro-2,6-difluorophenoxy)propyl]pyrrolidine]
≤ 10 | ≤ 10 | ≤ 10 | ≤ 100 | CC[C@H](Oc1c(F)cc(F)cc1F)[C@H]1CCNC1 [Example 2-55, (S)-3-[(S)-1-(2,4,6-Trifluorophenoxy)propyl]pyrrolidine]
≤ 100 | ≤ 10 | ≤ 100 | ≤ 100 | CC[C@H](Oc1ccc(F)c(OC)c1F)[C@H]1CCNC1 [Example 2-57, (S)-3-[(S)-1-(2,4-Difluoro-3-methoxyphenoxy)propyl]pyrrolidine]
≤ 10 | ≤ 10 | ≤ 10 | ≤ 10 | CC[C@H](Oc1ccc(Cl)cc1C)[C@H]1CCNC1 [Example 2-58, (S)-3-[(S)-1-(4-Chloro-2-methylphenoxy)propyl]pyrrolidine]
≤ 100 | ≤ 10 | ≤ 100 | ≤ 100 | CC[C@@H](Oc1ccc(Cl)cc1C)[C@@H]1CCNC1 [Example 2-60, (R)-3-[(R)-1-(4-Chloro-2-methylphenoxy)propyl]pyrrolidine]

Ki (hNET [1]) [nM] | Ki (hSERT [2]) [nM] | IC50 (hNET [3]) [nM] | IC50 (hSERT [4]) [nM] | SMILES
≤ 10 | ≤ 10 | ≤ 10 | ≤ 100 | CC[C@H](Oc1ccccc1C)[C@H]1CCNC1 [Example 2-62, (S)-3-((S)-1-o-Tolyloxypropyl)pyrrolidine]
≤ 10 | ≤ 10 | ≤ 10 | ≤ 10 | CCc1cc(F)ccc1O[C@@H](CC)[C@H]1CCNC1 [Example 2-66, (S)-3-[(S)-1-(2-Ethyl-4-fluorophenoxy)propyl]pyrrolidine]
≤ 10 | ≤ 10 | ≤ 10 | ≤ 10 | CC[C@H](Oc1ccc(Cl)cc1OC)[C@H]1CCNC1 [Example 2-68, (S)-3-[(S)-1-(4-Chloro-2-methoxyphenoxy)propyl]pyrrolidine]
≤ 10 | ≤ 100 | ≤ 100 | ≤ 100 | CC[C@H](Oc1ccc(F)cc1OC)[C@H]1CCNC1 [Example 2-69, (S)-3-[(S)-1-(4-Fluoro-2-methoxyphenoxy)propyl]pyrrolidine]
≤ 10 | ≤ 10 | ≤ 10 | ≤ 100 | CC[C@H](Oc1cc(F)c(Cl)cc1OC)[C@H]1CCNC1 [Example 2-70, (S)-3-[(S)-1-(4-Chloro-5-fluoro-2-methoxyphenoxy)propyl]pyrrolidine]
≤ 10 | ≤ 10 | ≤ 10 | ≤ 100 | CC[C@H](Oc1cccc(Cl)c1C(F)(F)F)[C@H]1CCNC1 [Example 2-71, (S)-3-[(S)-1-(3-Chloro-2-trifluoromethylphenoxy)propyl]pyrrolidine]
≤ 10 | ≤ 10 | ≤ 100 | ≤ 100 | CC[C@@H](Oc1cccc(Cl)c1C(F)(F)F)[C@@H]1CCNC1 [Example 2-72, (R)-3-[(R)-1-(3-Chloro-2-trifluoromethylphenoxy)propyl]pyrrolidine]
≤ 10 | ≤ 10 | ≤ 10 | ≤ 100 | CC[C@H](Oc1ccc(Cl)cc1C(F)(F)F)[C@H]1CCNC1 [Example 2-75, (S)-3-[(S)-1-(4-Chloro-2-trifluoromethylphenoxy)propyl]pyrrolidine]
≤ 10 | ≤ 10 | ≤ 10 | ≤ 10 | CCC[C@H](Oc1cccc(Cl)c1Cl)[C@H]1CCNC1 [Example 3, (S)-3-[(S)-1-(2,3-Dichlorophenoxy)butyl]pyrrolidine]
≤ 10 | ≤ 10 | ≤ 10 | ≤ 10 | CCC[C@H](Oc1ccc(Cl)cc1)[C@H]1CCNC1 [Example 4-1, (S)-3-[(S)-1-(4-Chlorophenoxy)butyl]pyrrolidine]
≤ 10 | ≤ 10 | ≤ 100 | ≤ 10 | CCC[C@@H](Oc1ccc(Cl)cc1)[C@H]1CCNC1 [Example 4-2, (S)-3-[(R)-1-(4-Chlorophenoxy)butyl]pyrrolidine]
≤ 10 | ≤ 10 | ≤ 10 | ≤ 100 | CCC[C@H](Oc1ccc(F)cc1)[C@H]1CCNC1 [Example 4-5, (S)-3-[(S)-1-(4-Fluorophenoxy)butyl]pyrrolidine]
≤ 10 | ≤ 10 | ≤ 10 | ≤ 10 | CCC[C@H](Oc1cc(Cl)cc(Cl)c1)[C@H]1CCNC1 [Example 4-6, (S)-3-[(S)-1-(3,5-Dichlorophenoxy)butyl]pyrrolidine]
≤ 10 | ≤ 10 | ≤ 10 | ≤ 10 | CCC[C@@H](Oc1cc(Cl)cc(Cl)c1)[C@H]1CCNC1 [Example 4-7, (S)-3-[(R)-1-(3,5-Dichlorophenoxy)butyl]pyrrolidine]
≤ 10 | ≤ 10 | ≤ 10 | ≤ 10 | CCC[C@H](Oc1ccc(Cl)c(Cl)c1)[C@H]1CCNC1 [Example 4-12, (S)-3-[(S)-1-(3,4-Dichlorophenoxy)butyl]pyrrolidine]
≤ 10 | ≤ 10 | ≤ 10 | ≤ 10 | CCC[C@@H](Oc1ccc(Cl)c(Cl)c1)[C@H]1CCNC1 [Example 4-13, (S)-3-[(R)-1-(3,4-Dichlorophenoxy)butyl]pyrrolidine]
≤ 10 | ≤ 10 | ≤ 10 | ≤ 10 | CCC[C@H](Oc1ccc(Cl)c(F)c1)[C@H]1CCNC1 [Example 4-18, (S)-3-[(S)-1-(4-Chloro-3-fluorophenoxy)butyl]pyrrolidine]
